Counter-ions that a name gives are not always drawn.
Compound | melting point
Cc1cc(C)c(N2CCCc3c2nn(C)c3CN2CCc3ccccc3C2)c(C)c1 (as salt: hydrochloride) [Example 11, 2-[2-Methyl-7-(2,4,6-trimethyl-phenyl)-4,5,6,7-tetrahydro-2H-pyrazolo[3,4-b]pyridin-3-ylmethyl]-1,2,3,4-tetrahydroisoquinolinedihydrochloride] | 236.4 to 241 °C
Cc1cc(C)c(N2CCCc3c2nn(C)c3Br)c(C)c1 [Example 3, 3-Bromo-2-methyl-7-(2,4,6-trimethyl-phenyl)-4,5,6,7-tetrahydro-2H-pyrazolo[3,4-b]pyridine] | 94.6 to 97.9 °C
CCCC(O)(CCC)c1c2c(nn1C)N(c1c(C)cc(C)cc1Cl)CCC2 [Example 5a, 4-[7-(2-Chloro-4,6-dimethylphenyl)-2-methyl-4,5,6,7-tetrahydro-2H-pyrazolo[3,4-b]pyridin-3-yl]heptan-4-ol] | 129 to 130 °C
CCCC(O)(CCC)c1c2c(nn1C)N(c1c(C)cc(C)cc1C)CCC2 [Example 5b, 4-[2-Methyl-7-(2,4,6-trimethylphenyl)-4,5,6,7-tetrahydro-2H-pyrazolo[3,4-b]pyridin-3-yl]heptan-4-ol] | 126 to 127.9 °C
CCCC(O)(CCC)c1c2c(nn1C)N(c1c(C)cc(C)cc1C)CCCC2 [Example 5d, 4-[2-Methyl-8-(2,4,6-trimethylphenyl)-2,4,5,6,7,8-hexahydro-1,2,8-triazaazulen-3-yl]heptan-4-ol] | 87 to 91.1 °C
CCCC(O)(CCC)c1c2c(nn1C)N(c1ccc(Cl)cc1Cl)CCC2 [Example 5e, 4-[7-(2,4-Dichlorophenyl)-2-methyl-4,5,6,7-tetrahydro-2H-pyrazolo[3,4-b]pyridin-3-yl]heptan-4-ol] | 121.4 to 122.6 °C
COCC(O)(COC)c1c2c(nn1C)N(c1c(C)cc(C)cc1C)CCC2 [Example 5f, 1,3-Dimethoxy-2-[2-methyl-7-(2,4,6-trimethylphenyl)-4,5,6,7-tetrahydro-2H-pyrazolo[3,4-b]pyridin-3-yl]propan-2-ol] | 120.3 to 121.8 °C
COCCC(O)(COC)c1c2c(nn1C)N(c1c(C)cc(C)cc1C)CCC2 (stereo not drawn) [Example 5g, 1,4-Dimethoxy-2-[2-methyl-7-(2,4,6-trimethylphenyl)-4,5,6,7-tetrahydro-2H-pyrazolo[3,4-b]pyridin-3-yl]butan-2-ol] | 107.9 to 110.9 °C
CCCC(O)(c1nccs1)c1c2c(nn1C)N(c1c(C)cc(C)cc1C)CCC2 (stereo not drawn) [Example 5h, 1-[2-Methyl-7-(2,4,6-trimethylphenyl)-4,5,6,7-tetrahydro-2H-pyrazolo[3,4-b]pyridin-3-yl]-1-thiazol-2-ylbutan-1-ol] | 160.1 to 165.6 °C
Cc1cc(C)c(N2CCCc3c2nn(C)c3C(O)c2ccco2)c(C)c1 (stereo not drawn) [Example 5i, Furan-2-yl[2-methyl-7-(2,4,6-trimethyl-phenyl)-4,5,6,7-tetrahydro-2H-pyrazolo[3,4-b]pyridin-3-yl]methanol] | 163.1 to 174.4 °C
CCC(O)c1c2c(nn1C)N(c1c(C)cc(C)cc1C)CCC2 (stereo not drawn) [Example 5j, 1-[2-Methyl-7-(2,4,6-trimethylphenyl)-4,5,6,7-tetrahydro-2H-pyrazolo[3,4-b]pyridin-3-yl]propan-1-ol] | 179.4 to 180.9 °C
CCCC(O)(c1nccn1CC)c1c2c(nn1C)N(c1c(C)cc(C)cc1C)CCC2 (stereo not drawn) [Example 5k, 1-(1-Ethyl-1H-imidazol-2-yl)-1-[2-methyl-7-(2,4,6-trimethylphenyl)-4,5,6,7-tetrahydro-2H-pyrazolo[3,4-b]pyridin-3-yl]butan-1-ol] | 94.9 to 100.9 °C
Cc1cc(C)c(N2CCCc3c2nn(C)c3C2(O)CCOCC2)c(C)c1 [Example 5l, 4-[2-Methyl-7-(2,4,6-trimethylphenyl)-4,5,6,7-tetrahydro-2H-pyrazolo[3,4-b]pyridin-3-yl]tetrahydropyran-4-ol] | 193 to 195.1 °C
Cc1cc(C)c(N2CCCc3cn(C)nc32)c(Cl)c1 [Example 5m, 7-(2-Chloro-4,6-dimethylphenyl)-2-methyl-4,5,6,7-tetrahydro-2H-pyrazolo[3,4-b]pyridine] | 97 to 98 °C
CC/C=C(\CCC)c1c2c(nn1C)N(c1c(C)cc(C)cc1Cl)CCC2 [Example 6a, 7-(2-Chloro-4,6-dimethylphenyl)-2-methyl-3-(1-propylbut-1-enyl)-4,5,6,7-tetrahydro-2H-pyrazolo[3,4-b]pyridine] | 86.7 to 88.2 °C
CC/C=C(\CCC)c1c2c(nn1C)N(c1c(C)cc(C)cc1C)CCC2 [Example 6b, 2-Methyl-3-(1-propylbut-1-enyl)-7-(2,4,6-trimethylphenyl)-4,5,6,7-tetrahydro-2H-pyrazolo[3,4-b]pyridine] | 101.6 to 102.6 °C
CC/C=C(\CCC)c1c2c(nn1C)N(c1c(C)cc(C)cc1C)CCCC2 [Example 6d, 2-Methyl-3-(1-propylbut-1-enyl)-8-(2,4,6-trimethylphenyl)-2,4,5,6,7,8-hexahydro-1,2,8-triazaazulene] | 101.9 to 103.9 °C

The remaining lines, values ahead:

melting point | Compound
87.6 to 90.3 °C | CCCC(c1cccs1)c1c2c(nn1C)N(c1c(C)cc(C)cc1C)CCC2 (stereo not drawn) [Example 7c, 2-Methyl-3-(1-thiophen-2-ylbutyl)-7-(2,4,6-trimethylphenyl)-4,5,6,7-tetrahydro-2H-pyrazolo[3,4-b]pyridine]
96 to 98.1 °C | CCCC(CCC)c1c2c(nn1C)N(c1c(C)cc(C)cc1C)CCCC2 [Example 7d, 2-Methyl-3-(1-propylbutyl)-8-(2,4,6-trimethylphenyl)-2,4,5,6,7,8-hexahydro-1,2,8-triazaazulene]
247.8 to 248.3 °C | Cc1cc(C)c(N2CCCc3c2nn(C)c3C(=O)O)c(Cl)c1 [Example 8a, 7-(2-Chloro-4,6-dimethylphenyl)-2-methyl-4,5,6,7-tetrahydro-2H-pyrazolo[3,4-b]pyridine-3-carboxylic acid]
228.6 to 233.9 °C | Cc1cc(C)c(N2CCCc3c2nn(C)c3C(=O)O)c(C)c1 [Example 8b, 7-(2,4,6-Trimethylphenyl)-2-methyl-4,5,6,7-tetrahydro-2H-pyrazolo[3,4-b]pyridine-3-carboxylic acid]
171.4 to 175.7 °C | Cc1cc(C)c(N2CCCc3c2nn(C)c3NC(=O)OC(C)(C)C)c(Cl)c1 [Example 8c, [7-(2-Chloro-4,6-dimethylphenyl)-2-methyl-4,5,6,7-tetrahydro-2H-pyrazolo[3,4-b]pyridin-3-yl]carbamic acid tert-butyl ester]
204 to 207.8 °C | CCOC(=O)Nc1c2c(nn1C)N(c1c(C)cc(C)cc1Cl)CCC2 [Example 8d, [7-(2-Chloro-4,6-dimethylphenyl)-2-methyl-4,5,6,7-tetrahydro-2H-pyrazolo[3,4-b]pyridin-3-yl]carbamic acid ethyl ester]
90 to 91 °C | CCCN(CCC)c1c2c(nn1C)N(c1c(C)cc(C)cc1Cl)CCC2 [Example 9a, [7-(2-Chloro-4,6-dimethylphenyl)-2-methyl-4,5,6,7-tetrahydro-2H-pyrazolo[3,4-b]pyridin-3-yl]dipropylamine]
88.9 to 91.5 °C | CCCN(CCC)c1c2c(nn1C)N(c1c(C)cc(C)cc1C)CCC2 [Example 9ae, [2-Methyl-7-(2,4,6-trimethylphenyl)-4,5,6,7-tetrahydro-2H-pyrazoio[3,4-b]pyridin-3-yl]-dipropylamine]
99.3 to 104.9 °C | CCC(CC)Nc1c2c(nn1C)N(c1c(C)cc(C)cc1C)CCC2 [Example 9af, (1-Ethylpropyl)-[2-methyl-7-(2,4,6-trimethyl-phenyl)-4,5,6,7-tetrahydro-2H-pyrazolo[3,4-b]pyridin-3-yl]-amine]
96.5 to 102.5 °C | CCC(COC)Nc1c2c(nn1C)N(c1c(C)cc(C)cc1C)CCC2 (stereo not drawn) [Example 9aj, (1-Methoxymethylpropyl)-[2-methyl-7-(2,4,6-trimethylphenyl)-4,5,6,7-tetrahydro-2H-pyrazolo[3,4-b]pyridin-3-yl]-amine]
100.1 to 104.4 °C | CCCC(COC)Nc1c2c(nn1C)N(c1c(C)cc(C)cc1C)CCC2 (stereo not drawn) [Example 9ak, (1-Methoxymethylbutyl)-[2-methyl-7-(2,4,6-trimethylphenyl)-4,5,6,7-tetrahydro-2H-pyrazolo[3,4-b]pyridin-3-yl]-amine]
120.6 to 122 °C | CCCN(CC1CC1)C(=O)c1c2c(nn1C)N(c1c(C)cc(C)cc1Cl)CCC2 [Example 10a, 7-(2-Chloro-4,6-dimethylphenyl)-2-methyl-4,5,6,7-tetrahydro-2H-pyrazolo[3,4-b]pyridine-3-carboxylic acidcyclopropylmethylpropylamide]
80.3 to 87.7 °C | Cc1cc(C)c(N2CCCc3c2nn(C)c3C(=O)N2CCc3ccccc3C2)c(C)c1 [Example 10b, (3,4-Dihydro-1H-isoquinolin-2-yl)-[2-methyl-7-(2,4,6-trimethyl-phenyl)-4,5,6,7-tetrahydro-2H-pyrazolo[3,4-b]pyridin-3-yl]-methanone]
226 to 228 °C | CCC(=O)Nc1c2c(nn1C)N(c1c(C)cc(C)cc1C)CCC2 [Example 10c, N-[2-Methyl-7-(2,4,6-trimethylphenyl)-4,5,6,7-tetrahydro-2H-pyrazolo[3,4-b]pyridin-3-yl]propionamide]
133.8 to 135 °C | COCC(=O)Nc1c2c(nn1C)N(c1c(C)cc(C)cc1C)CCC2 [Example 10d, 2-Methoxy-N-[2-methyl-7-(2,4,6-trimethyl-phenyl)-4,5,6,7-tetrahydro-2H-pyrazolo[3,4-b]pyridin-3-yl]acetamide]
169.9 to 172.8 °C | COc1cccc(OC)c1-c1c2c(nn1C)N(c1c(C)cc(C)cc1C)CCC2 [Example 13b, 3-(2,6-Dimethoxyphenyl)-2-methyl-7-(2,4,6-trimethylphenyl)-4,5,6,7-tetrahydro-2H-pyrazolo[3,4-b]pyridine]

— US7268146B2, “Ring fused pyrazole derivatives as CRF antagonists” (Palo Alto LLC, priority 2001, dated 2007)
